Laboratory results taken from patent US6114334A, “Piperazine derivatives as therapeutic agents” (Knoll Aktiengesellschaft, priority 1995, dated 2000).

Tests used:
5-HT1A receptors = biological target: T1, 5-HT1A receptors (Rattus norvegicus, UniProt P19327); test: inhibition of [3H]8-OH-DPAT binding to 5-HT1A receptors in vitro; design: species or system rat (male Sprague-Dawley, hippocampal tissue); conditions: rat hippocampus, [3H]8-OH-DPAT 2 nM, 25° C., 30 min
T1 sequence (P19327 1-422): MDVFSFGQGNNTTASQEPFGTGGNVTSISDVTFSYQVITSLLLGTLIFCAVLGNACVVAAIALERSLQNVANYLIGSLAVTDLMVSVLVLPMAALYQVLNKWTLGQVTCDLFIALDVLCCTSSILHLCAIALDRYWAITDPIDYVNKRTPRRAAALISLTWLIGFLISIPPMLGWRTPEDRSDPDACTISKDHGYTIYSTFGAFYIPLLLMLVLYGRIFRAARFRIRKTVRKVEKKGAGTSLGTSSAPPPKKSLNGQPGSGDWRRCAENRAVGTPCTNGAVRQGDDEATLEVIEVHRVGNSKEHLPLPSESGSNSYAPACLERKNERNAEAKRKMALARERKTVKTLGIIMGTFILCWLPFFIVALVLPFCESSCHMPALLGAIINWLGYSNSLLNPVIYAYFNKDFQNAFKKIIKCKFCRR

α2A-adrenoceptors = biological target: T2, α2A-adrenoceptors (Homo sapiens, UniProt P08913); test: inhibition of tritiated RX 821002 binding to α2A-adrenoceptors in vitro; design: species or system human (cerebral cortex post-mortem); conditions: 10^-6 M, human cerebral cortex, [3H]RX 821002; read-out: % displacement at 10^-6 M, α2A
T2 construct: Human cerebral cortex obtained at post-mortem; from tissue; host or cells: human cerebral cortex, post-mortem
T2 sequence (P08913 1-465): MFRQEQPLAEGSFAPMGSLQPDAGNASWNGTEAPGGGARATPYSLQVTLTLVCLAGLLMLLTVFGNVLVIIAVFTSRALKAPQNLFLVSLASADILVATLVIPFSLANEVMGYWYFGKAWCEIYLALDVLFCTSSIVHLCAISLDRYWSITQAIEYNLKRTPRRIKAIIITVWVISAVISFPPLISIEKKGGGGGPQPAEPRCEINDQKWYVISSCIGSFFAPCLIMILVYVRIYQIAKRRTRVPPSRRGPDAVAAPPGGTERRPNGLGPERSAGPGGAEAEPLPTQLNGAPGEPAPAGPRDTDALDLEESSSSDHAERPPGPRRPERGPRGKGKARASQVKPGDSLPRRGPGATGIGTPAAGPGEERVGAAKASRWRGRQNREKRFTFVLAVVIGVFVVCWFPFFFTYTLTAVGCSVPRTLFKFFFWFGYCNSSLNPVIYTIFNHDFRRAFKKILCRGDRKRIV
Summary of the method: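 Post-mortem human cerebral cortex membranes (10 mg wet tissue/tube; 50 mM Tris-HCl pH 7.5, ascorbate, EDTA) incubated 75 min at 0 °C with [3H]RX 821002 (0.2 nM as added) and compound; filtration, scintillation counting. Compounds displacing ≥50% at 10^-6 M tested at 10^-11–10^-3 M; IC50 converted to Ki.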

α2D-adrenoceptors = biological target: T3, α2D-adrenoceptors (Rattus norvegicus, UniProt P22909); test: inhibition of tritiated idazoxan binding to α2D-adrenoceptors in vitro; design: species or system rat (male Charles River CD, frontal cortical tissue); conditions: 10^-6 M, rat frontal cortex, [3H]idazoxan; read-out: % displacement at 10^-6 M, α2D
T3 sequence (P22909 1-465): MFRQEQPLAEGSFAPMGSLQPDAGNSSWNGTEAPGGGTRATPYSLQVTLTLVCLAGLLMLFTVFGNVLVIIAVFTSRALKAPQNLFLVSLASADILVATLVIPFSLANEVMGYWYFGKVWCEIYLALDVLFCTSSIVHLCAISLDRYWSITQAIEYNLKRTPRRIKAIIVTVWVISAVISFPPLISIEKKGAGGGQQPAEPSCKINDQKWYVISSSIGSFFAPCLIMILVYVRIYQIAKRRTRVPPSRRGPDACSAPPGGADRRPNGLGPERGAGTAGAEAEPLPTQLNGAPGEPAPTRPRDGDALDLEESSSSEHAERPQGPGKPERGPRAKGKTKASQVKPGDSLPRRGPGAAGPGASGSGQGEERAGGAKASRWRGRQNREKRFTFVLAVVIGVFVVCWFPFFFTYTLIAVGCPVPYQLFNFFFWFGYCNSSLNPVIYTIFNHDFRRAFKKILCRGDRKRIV

α1-adrenoceptors = test: inhibition of 7-methoxy-[3H]prazosin binding to α1-adrenoceptors in vitro; design: species or system rat (male Charles River CD, whole cortical tissue); conditions: rat whole cortex, 7-methoxy-[3H]prazosin 0.1 nM, 30° C., 30 min
Summary of the method: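 Male CD rat cortical membranes in 50 mM Tris-HCl pH 7.6 were incubated 30 min at 30 °C with 7-methoxy-[3H]prazosin (0.1 nM as added), with 5 μM phentolamine (as added) defining non-specific binding, then filtered and counted. Compounds were tested at 10^-6 M for % displacement or at 10^-11–10^-3 M for IC50, and Ki was derived from IC50, ligand concentration and KD.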

D2 dopamine receptors = D2 dopamine receptors (Rattus norvegicus, UniProt P61169); test: inhibition of tritiated (S)-sulpiride binding to D2 dopamine receptors in vitro; design: species or system rat (male Charles River CD, striatal tissue); conditions: rat striatum, tritiated (S)-sulpiride 1 nM, 4° C., 40 min
Chain of D2 dopamine receptors (P61169 whole entry): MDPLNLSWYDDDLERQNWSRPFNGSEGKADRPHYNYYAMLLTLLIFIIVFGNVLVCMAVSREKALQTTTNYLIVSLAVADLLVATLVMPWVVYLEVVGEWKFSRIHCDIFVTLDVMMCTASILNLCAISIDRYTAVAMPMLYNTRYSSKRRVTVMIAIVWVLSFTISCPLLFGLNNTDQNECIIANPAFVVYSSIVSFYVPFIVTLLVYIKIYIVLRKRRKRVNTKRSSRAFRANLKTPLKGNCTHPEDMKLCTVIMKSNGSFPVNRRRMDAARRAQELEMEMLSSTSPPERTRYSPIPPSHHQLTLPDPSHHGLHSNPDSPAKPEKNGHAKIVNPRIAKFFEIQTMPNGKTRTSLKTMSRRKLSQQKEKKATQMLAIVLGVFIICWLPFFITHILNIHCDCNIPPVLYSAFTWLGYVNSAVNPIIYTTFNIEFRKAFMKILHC

C=CCN1C(=O)C(C)(CN2CCN(c3cccc4c3OCCO4)CC2)N=C1c1cccnc1 (centres unmarked) [Example 44, 1-allyl-4-[4-(1,4-benzodioxan-5-yl)piperazin-1-ylmethyl]-4-methyl-2-(3-pyridyl)-2-imidazolin-5-one]
Ki (5-HT1A receptors): 15 nM | inhibition at 1 µM (α2A-adrenoceptors): 76% | inhibition at 1 µM (α2D-adrenoceptors): 54% | Ki (α1-adrenoceptors): > 500 nM | Ki (D2 dopamine receptors): 345 nM
